# Measurements taken from article PMC5218480 (PLoS ONE, 2017).
# Tested on: MV-4-11 cells
# Experiment: Gene expression microarray analysis (Affymetrix PrimeView) and GSEA
# Format: cell-based, human
# Design: RFU PODN (11730768_x_at) / Fold change /veh PODN (11730768_x_at) / RFU LINC00158 (11744669_a_at) / Fold change /veh LINC00158 (11744669_a_at) / RFU DUSP10 (11751237_a_at) / Fold change /veh DUSP10 (11751237_a_at) / RFU ID3 (11757404_x_at) / Fold change /veh ID3 (11757404_x_at) / RFU PLEKHG5 (11737974_s_at) / Fold change /veh PLEKHG5 (11737974_s_at) / RFU LRRC4B (11730491_at) / Fold change /veh LRRC4B (11730491_at) / RFU GIMAP4 (11747438_a_at) / Fold change /veh GIMAP4 (11747438_a_at) / RFU KRT8 (11758183_x_at) / Fold change /veh KRT8 (11758183_x_at) / RFU CNN1 (11734310_a_at) / Fold change /veh CNN1 (11734310_a_at) / RFU VPS37D (11726825_at) / Fold change /veh VPS37D (11726825_at) / RFU C10orf10 (11716522_x_at) / Fold change /veh C10orf10 (11716522_x_at) / RFU KIR2DL2 /// KIR2DL4 /// KIR2DL5A /// KIR2DL5B /// KIR2DS1 /// KIR2DS2 /// KIR2DS3 /// KIR2DS4 /// KIR3DL3 /// KIR3DL3 /// KIR3DS1 (11738374_at) / Fold change /veh KIR2DL2 /// KIR2DL4 /// KIR2DL5A /// KIR2DL5B /// KIR2DS1 /// KIR2DS2 /// KIR2DS3 /// KIR2DS4 /// KIR3DL3 /// KIR3DL3 /// KIR3DS1 (11738374_at) / RFU C1QL1 (11718748_at) / Fold change /veh C1QL1 (11718748_at) / RFU TMPRSS4 (11747572_a_at) / Fold change /veh TMPRSS4 (11747572_a_at) / RFU HAMP (11756126_x_at) / Fold change /veh HAMP (11756126_x_at) / RFU RNFT2 (11725882_a_at) / Fold change /veh RNFT2 (11725882_a_at) / RFU NR4A2 (11747474_a_at) / Fold change /veh NR4A2 (11747474_a_at) / RFU ABCC12 (11746883_a_at) / Fold change /veh ABCC12 (11746883_a_at) / RFU TMEM136 (11760407_x_at) / Fold change /veh TMEM136 (11760407_x_at) / RFU CLDN22 /// WWC2 (11732394_at) / Fold change /veh CLDN22 /// WWC2 (11732394_at) / RFU HLA-DPB1 (11760878_x_at) / Fold change /veh HLA-DPB1 (11760878_x_at) / RFU SPINT1 (11716480_a_at) / Fold change /veh SPINT1 (11716480_a_at) / RFU GAP43 (11754022_s_at) / Fold change /veh GAP43 (11754022_s_at) / RFU A4GNT (11735810_at) / Fold change /veh A4GNT (11735810_at) / RFU PRB3 (11715151_x_at) / Fold change /veh PRB3 (11715151_x_at) / RFU TUBB4B (11761932_at) / Fold change /veh TUBB4B (11761932_at) / RFU CAPN14 (11732068_a_at) / Fold change /veh CAPN14 (11732068_a_at) / RFU TMCC2 (11721928_a_at) / Fold change /veh TMCC2 (11721928_a_at) / RFU IRGQ (11745062_a_at) / Fold change /veh IRGQ (11745062_a_at) / RFU FAM174B (11720279_a_at) / Fold change /veh FAM174B (11720279_a_at) / RFU TMPRSS4 (11748680_a_at) / Fold change /veh TMPRSS4 (11748680_a_at) / RFU FAM212B (11763350_a_at) / Fold change /veh FAM212B (11763350_a_at) / RFU PLEKHG5 (11743358_a_at) / Fold change /veh PLEKHG5 (11743358_a_at) / RFU ZSCAN30 (11745921_a_at) / Fold change /veh ZSCAN30 (11745921_a_at) / RFU CMKLR1 (11741424_a_at) / Fold change /veh CMKLR1 (11741424_a_at) / RFU LOC101060620 /// MAPK8IP1 (11723275_at) / Fold change /veh LOC101060620 /// MAPK8IP1 (11723275_at) / RFU SPTSSB (11747773_x_at) / Fold change /veh SPTSSB (11747773_x_at) / RFU PRSS12 (11739890_at) / Fold change /veh PRSS12 (11739890_at) / RFU BIN1 (11741810_x_at) / Fold change /veh BIN1 (11741810_x_at) / RFU WNT11 (11732464_a_at) / Fold change /veh WNT11 (11732464_a_at) / RFU C10orf10 (11716521_a_at) / Fold change /veh C10orf10 (11716521_a_at) / RFU C5orf56 (11738089_at) / Fold change /veh C5orf56 (11738089_at) / RFU CYB561 (11721691_x_at) / Fold change /veh CYB561 (11721691_x_at) / RFU ANKRD19P (11752326_a_at) / Fold change /veh ANKRD19P (11752326_a_at) / RFU OR2T12 /// OR2T33 /// OR2T8 (11738714_s_at) / Fold change /veh OR2T12 /// OR2T33 /// OR2T8 (11738714_s_at) / RFU VCAN (11748164_a_at) / Fold change /veh VCAN (11748164_a_at) / RFU JSRP1 (11732532_at) / Fold change /veh JSRP1 (11732532_at) / RFU KRTAP10-11 (11738290_x_at) / Fold change /veh KRTAP10-11 (11738290_x_at) / RFU MYO3A (11730013_a_at) / Fold change /veh MYO3A (11730013_a_at) / RFU EBF3 (11725865_a_at) / Fold change /veh EBF3 (11725865_a_at) / RFU CAMK2N1 (11719241_x_at) / Fold change /veh CAMK2N1 (11719241_x_at) / RFU C5orf56 (11738088_a_at) / Fold change /veh C5orf56 (11738088_a_at) / RFU OLFML3 (11715873_a_at) / Fold change /veh OLFML3 (11715873_a_at) / RFU LOC100653217 /// NTM (11731650_a_at) / Fold change /veh LOC100653217 /// NTM (11731650_a_at) / RFU MAPK11 (11762145_a_at) / Fold change /veh MAPK11 (11762145_a_at) / RFU FIZ1 (11724087_x_at) / Fold change /veh FIZ1 (11724087_x_at) / RFU OASL (11726364_x_at) / Fold change /veh OASL (11726364_x_at) / RFU SOX15 (11748057_x_at) / Fold change /veh SOX15 (11748057_x_at) / RFU CD79A (11719716_a_at) / Fold change /veh CD79A (11719716_a_at) / RFU HIST1H1D (11736915_at) / Fold change /veh HIST1H1D (11736915_at) / RFU CASKIN2 (11723855_a_at) / Fold change /veh CASKIN2 (11723855_a_at) / RFU LOC730098 (11760151_x_at) / Fold change /veh LOC730098 (11760151_x_at) / RFU OR4N2 (11742367_at) / Fold change /veh OR4N2 (11742367_at) / RFU PRRT2 (11749266_a_at) / Fold change /veh PRRT2 (11749266_a_at) / RFU SNX32 (11753110_a_at) / Fold change /veh SNX32 (11753110_a_at) / RFU CDHR5 (11726645_a_at) / Fold change /veh CDHR5 (11726645_a_at) / RFU RCAN1 (11760418_a_at) / Fold change /veh RCAN1 (11760418_a_at) / RFU FAM167A (11723789_a_at) / Fold change /veh FAM167A (11723789_a_at) / RFU FAM26E (11764081_at) / Fold change /veh FAM26E (11764081_at) / RFU ISYNA1 (11749810_s_at) / Fold change /veh ISYNA1 (11749810_s_at) / RFU ACY1 (11761880_at) / Fold change /veh ACY1 (11761880_at) / RFU 11764098_at / Fold change /veh 11764098_at / RFU SAMD14 (11745864_x_at) / Fold change /veh SAMD14 (11745864_x_at) / RFU NPB (11741838_a_at) / Fold change /veh NPB (11741838_a_at) / RFU TMPRSS6 (11731388_a_at) / Fold change /veh TMPRSS6 (11731388_a_at) / RFU KRTAP10-2 (11738614_at) / Fold change /veh KRTAP10-2 (11738614_at) / RFU ARHGAP8 /// PRR5-ARHGAP8 (11727945_x_at) / Fold change /veh ARHGAP8 /// PRR5-ARHGAP8 (11727945_x_at) / RFU KRTAP5-7 /// NADSYN1 (11734609_at) / Fold change /veh KRTAP5-7 /// NADSYN1 (11734609_at) / RFU RASL12 (11751679_a_at) / Fold change /veh RASL12 (11751679_a_at) / RFU CDKN2B (11736163_a_at) / Fold change /veh CDKN2B (11736163_a_at) / RFU PRF1 (11729649_at) / Fold change /veh PRF1 (11729649_at) / RFU, ZNF638 /// ZNF638-IT1 / Fold change vs veh, ZNF638 /// ZNF638-IT1 / RFU, PANK3 / Fold change vs veh, PANK3 / RFU, SH3YL1 / Fold change vs veh, SH3YL1 / RFU, ZEB2 / Fold change vs veh, ZEB2 / RFU, NRIP1 / Fold change vs veh, NRIP1 / RFU, PTTG1IP / Fold change vs veh, PTTG1IP / RFU, CAPN2 / Fold change vs veh, CAPN2 / RFU, MED14 / Fold change vs veh, MED14 / RFU, SNORA58 / Fold change vs veh, SNORA58 / RFU, C1orf63 / Fold change vs veh, C1orf63 / RFU, LRRFIP1 / Fold change vs veh, LRRFIP1 / RFU, NDUFAF7 / Fold change vs veh, NDUFAF7 / RFU, SLC12A2 / Fold change vs veh, SLC12A2 / RFU, IBTK / Fold change vs veh, IBTK / RFU, ESF1 / Fold change vs veh, ESF1 / Fold change vs veh, TMEM50B / RFU, TAOK1 / Fold change vs veh, TAOK1 / RFU, ACBD3 / Fold change vs veh, ACBD3 / RFU, TMA16 / Fold change vs veh, TMA16 / RFU, RWDD3 / Fold change vs veh, RWDD3 / RFU, BCAT1 / Fold change vs veh, BCAT1 / RFU, EDEM3 / Fold change vs veh, EDEM3 / RFU, TMEM33 / Fold change vs veh, TMEM33 / RFU, WDR75 / Fold change vs veh, WDR75 / RFU, AHCTF1 / Fold change vs veh, AHCTF1 / RFU, TFRC / Fold change vs veh, TFRC / RFU, ZDHHC17 / Fold change vs veh, ZDHHC17 / RFU, NOM1 / Fold change vs veh, NOM1 / RFU, ARL8B / Fold change vs veh, ARL8B / RFU, ZBTB11 / Fold change vs veh, ZBTB11 / RFU, TAMM41 / Fold change vs veh, TAMM41 / RFU, KIAA1704 /// LOC100996395 / Fold change vs veh, KIAA1704 /// LOC100996395 / RFU, ING1 / Fold change vs veh, ING1 / RFU, TRMT61B / Fold change vs veh, TRMT61B / RFU, FUBP3 / Fold change vs veh, FUBP3 / RFU, TP53 / Fold change vs veh, TP53 / RFU, TNKS2 / Fold change vs veh, TNKS2 / RFU, ZFP14 / Fold change vs veh, ZFP14 / RFU, ACTR2 / Fold change vs veh, ACTR2 / RFU, PPP3R1 / Fold change vs veh, PPP3R1 / RFU, PIK3R1 / Fold change vs veh, PIK3R1 / RFU, HNRNPA1 / Fold change vs veh, HNRNPA1 / RFU, RNF170 / Fold change vs veh, RNF170 / RFU, ZNF28 / Fold change vs veh, ZNF28 / RFU, RNGTT / Fold change vs veh, RNGTT / RFU, OGT / Fold change vs veh, OGT / RFU, BRD1 / Fold change vs veh, BRD1 / RFU, MARS / Fold change vs veh, MARS / RFU, ZNF655 / Fold change vs veh, ZNF655 / RFU, FAHD1 / Fold change vs veh, FAHD1 / RFU, BDP1 / Fold change vs veh, BDP1 / RFU, LRRCC1 / Fold change vs veh, LRRCC1 / RFU, ARID1A / Fold change vs veh, ARID1A / RFU, ZNF146 / Fold change vs veh, ZNF146 / RFU, ZNF330 / Fold change vs veh, ZNF330 / RFU, GPN3 / Fold change vs veh, GPN3 / RFU, C9orf123 / Fold change vs veh, C9orf123 / RFU, N4BP2L2 / Fold change vs veh, N4BP2L2 / RFU, ARFIP1 / Fold change vs veh, ARFIP1 / RFU, FAM179B / Fold change vs veh, FAM179B / RFU, BCL10 / Fold change vs veh, BCL10 / RFU, UHRF1BP1L / Fold change vs veh, UHRF1BP1L / RFU, BET1 / Fold change vs veh, BET1 / RFU, CNOT2 / Fold change vs veh, CNOT2 / RFU, ZNF268 / Fold change vs veh, ZNF268 / Fold change vs veh, ZNF507 / RFU, DGCR2 / Fold change vs veh, DGCR2 / RFU, WDSUB1 / Fold change vs veh, WDSUB1 / Fold change vs veh, HSP90B1 /// MIR3652 / RFU, ADSS / Fold change vs veh, ADSS / RFU, GK / Fold change vs veh, GK / RFU, ZNF148 / Fold change vs veh, ZNF148 / RFU, TAF9 / Fold change vs veh, TAF9 / RFU, SLC1A5 / Fold change vs veh, SLC1A5 / RFU, SLMO2 / Fold change vs veh, SLMO2 / RFU, ABCC4 / Fold change vs veh, ABCC4 / RFU, LOC101060439 /// RAP1B / Fold change vs veh, LOC101060439 /// RAP1B / RFU, RFX7 / Fold change vs veh, RFX7 / RFU, GTPBP10 / Fold change vs veh, GTPBP10 / RFU, CNEP1R1 / Fold change vs veh, CNEP1R1 / RFU, BIVM-ERCC5 /// ERCC5 / Fold change vs veh, BIVM-ERCC5 /// ERCC5 / RFU, ILF3 / Fold change vs veh, ILF3 / RFU 11762660_at / Fold change /veh 11762660_at / RFU VCAN (11757783_s_at) / Fold change /veh VCAN (11757783_s_at) / RFU DDX43 (11728927_at) / Fold change /veh DDX43 (11728927_at) / RFU KRT8 (11758188_x_at) / Fold change /veh KRT8 (11758188_x_at) / RFU NKD1 (11759106_at) / Fold change /veh NKD1 (11759106_at) / RFU SRD5A1 (11742802_a_at) / Fold change /veh SRD5A1 (11742802_a_at) / RFU TPSAB1 /// TPSB2 (11721975_s_at) / Fold change /veh TPSAB1 /// TPSB2 (11721975_s_at) / RFU GSTM3 (11746129_a_at) / Fold change /veh GSTM3 (11746129_a_at) / RFU IL23R (11737362_x_at) / Fold change /veh IL23R (11737362_x_at) / RFU TMEM51 (11727254_a_at) / Fold change /veh TMEM51 (11727254_a_at) / RFU PIWIL2 (11732686_x_at) / Fold change /veh PIWIL2 (11732686_x_at) / RFU ORM1 (11744905_x_at) / Fold change /veh ORM1 (11744905_x_at) / RFU CCDC152 (11743942_at) / Fold change /veh CCDC152 (11743942_at) / RFU ECM1 (11717891_a_at) / Fold change /veh ECM1 (11717891_a_at) / RFU IL23R (11748794_a_at) / Fold change /veh IL23R (11748794_a_at) / RFU TNFAIP8L3 (11732012_x_at) / Fold change /veh TNFAIP8L3 (11732012_x_at) / RFU MBOAT4 (11741988_at) / Fold change /veh MBOAT4 (11741988_at) / RFU 11764193_at / Fold change /veh 11764193_at / RFU TMEM53 (11763286_at) / Fold change /veh TMEM53 (11763286_at) / RFU MAGEB2 (11727129_at) / Fold change /veh MAGEB2 (11727129_at) / RFU TMEM200A (11744735_a_at) / Fold change /veh TMEM200A (11744735_a_at) / RFU CCDC152 (11751479_a_at) / Fold change /veh CCDC152 (11751479_a_at) / RFU FAM211A (11726209_a_at) / Fold change /veh FAM211A (11726209_a_at) / RFU RGS16 (11746705_a_at) / Fold change /veh RGS16 (11746705_a_at) / RFU VCAN (11755009_s_at) / Fold change /veh VCAN (11755009_s_at) / RFU RHOB (11743442_s_at) / Fold change /veh RHOB (11743442_s_at) / RFU RGS16 (11720943_a_at) / Fold change /veh RGS16 (11720943_a_at) / RFU RGS16 (11720944_at) / Fold change /veh RGS16 (11720944_at) / RFU, VPS4B / Fold change vs veh, VPS4B / RFU, CREB1 / Fold change vs veh, CREB1 / RFU, DNAJC13 / Fold change vs veh, DNAJC13 / RFU, GNAQ / Fold change vs veh, GNAQ / RFU, CDK5R1 / Fold change vs veh, CDK5R1 / RFU, ZRANB3 / Fold change vs veh, ZRANB3 / RFU, CUL4A / Fold change vs veh, CUL4A / RFU, CCNY / Fold change vs veh, CCNY / RFU, UFL1 / Fold change vs veh, UFL1 / RFU, COG3 / Fold change vs veh, COG3 / RFU, DIAPH2 / Fold change vs veh, DIAPH2 / RFU, SKA2 / Fold change vs veh, SKA2 / RFU, AFF3 / Fold change vs veh, AFF3 / RFU, LMF1 / Fold change vs veh, LMF1 / RFU, IPO11 / Fold change vs veh, IPO11 / RFU, DFFB / Fold change vs veh, DFFB / RFU, FOXP1 / Fold change vs veh, FOXP1 / RFU, CARD8 / Fold change vs veh, CARD8 / RFU, STRN3 / Fold change vs veh, STRN3 / RFU, ADK / Fold change vs veh, ADK / RFU, RASSF2 / Fold change vs veh, RASSF2 / RFU, WIPF1 / Fold change vs veh, WIPF1 / RFU, LARP1B / Fold change vs veh, LARP1B / RFU, RASA1 / Fold change vs veh, RASA1 / RFU, RB1 / Fold change vs veh, RB1 / RFU, PPFIA1 / Fold change vs veh, PPFIA1 / RFU, MAT2A / Fold change vs veh, MAT2A / RFU, CCT5 / Fold change vs veh, CCT5 / RFU, WDR92 / Fold change vs veh, WDR92 / RFU, CUX1 / Fold change vs veh, CUX1 / RFU, TTC7A / Fold change vs veh, TTC7A / RFU, TMEM135 / Fold change vs veh, TMEM135 / RFU, DEPTOR / Fold change vs veh, DEPTOR / RFU, CPM / Fold change vs veh, CPM / RFU, DNAJB6 / Fold change vs veh, DNAJB6 / RFU, CACNA2D3 / Fold change vs veh, CACNA2D3 / RFU, DTX4 / Fold change vs veh, DTX4 / RFU, TFCP2 / Fold change vs veh, TFCP2 / RFU, GMCL1 /// GMCL1P1 / Fold change vs veh, GMCL1 /// GMCL1P1 / RFU, AEBP2 / Fold change vs veh, AEBP2 / RFU, SNHG1 /// SNORD22 /// SNORD25 /// SNORD26 /// SNORD27 /// SNORD28 /// SNORD29 /// SNORD31 / Fold change vs veh, SNHG1 /// SNORD22 /// SNORD25 /// SNORD26 /// SNORD27 /// SNORD28 /// SNORD29 /// SNORD31 / Fold change (Aza/veh), C12orf56 (ProbeSet 11735607_a_at) / Fold change (ACY-1035/veh), C12orf56 (ProbeSet 11735607_a_at) / Fold change (Aza/veh), FGFR1OP (ProbeSet 11751329_s_at) / Fold change (ACY-1035/veh), FGFR1OP (ProbeSet 11751329_s_at) / Fold change (Aza/veh), VPS36 (ProbeSet 11739960_a_at) / Fold change (ACY-1035/veh), VPS36 (ProbeSet 11739960_a_at) / RFU SYPL1 (11715823_x_at) / Fold change /veh SYPL1 (11715823_x_at) / RFU IGFBP7 (11715501_s_at) / Fold change /veh IGFBP7 (11715501_s_at) / RFU REEP3 (11722064_at) / Fold change /veh REEP3 (11722064_at) / RFU IGLL1 (11728026_x_at) / Fold change /veh IGLL1 (11728026_x_at): dose or concentration left out as unconfirmed
# Conditions: MV-4-11 cells, 48 hours
structure (smiles),measurement,value
Nc1ccc(-c2cccs2)cc1NC(=O)c1ccc2c(c1)cc(C1CC1)n2CCN1CCOCC1 [ACY-1035],RFU GIMAP4 (11747438_a_at),6.21 RFU
